The subject of data set [1] is human corneal fibroblasts. As to the kind of experiment: Model for fibrosis induction (3D corneal stroma, TGF-β1). Note: key: 0: not superior to native FA (control); +: Superior to native FA; ++: superior to both; +++: outstanding effect. In kind it is cell-based. Particulars: TGF-β1 over 7 days; compared with native FA. As for the experimental part:
Cornea injury may ultimately lead to a scar by way of corneal fibrosis, which is characterized by the presence of myofibroblasts and improper deposition of extracellular matrix components (ECM). An established in vitro model to study the healing response to trauma of corneal stroma was used. The in vitro 3-dimensional (3D) model of a corneal stroma was produced by human corneal fibroblasts stimulated with stable vitamin C which mimics corneal development. TGF-β1 was added to the medium over 7 days. […] There were no morphological changes of the myofibroblasts when treated with nitro fatty acids.

Data set [2] concerns Tracheas of adult Wistar rats. Description: Tissue damage due to barotrauma ex vivo (tracheal rings). Note: key: 0: not superior to native FA (control); +: Superior to native FA; ++: superior to both; +++: outstanding effect. In kind it is cell-based. The following applies: tracheal rings bathed 15 minutes, balloon 4 atm 4 hours; compared with native FA. As for the experimental part:
In order to determine the effects of nitrated fatty acids on mechanical trauma to tracheal cells, an ex vivo model was established. Tracheas of adult Wistar rats sacrificed with thiopental given intraabdominally were carefully resected (harvested). Whole (intact) tracheas were cultured in DMEM 10 (Sigma) supplemented with antibiotic/antimycotic drugs for 48 hours at 37° C. Tracheas were cut into five pieces of equal size. One piece was immediately analyzed, two were bathed in 0.9% saline, one was bathed in a solution containing native fatty acid in SDS (1%), and one was bathed in a solution containing nitro fatty acid, respectively, for 15 minutes each. The inner diameters of the tracheal rings were measured. A non-compliant balloon catheter for use in vascular interventions was chosen, so that the nominal balloon diameter was 15-20% larger than that of the trachea. One tracheal ring pretreated with 0.9% saline was left untreated; the other prepared tracheal rings were mounted on the balloon catheter, which was inflated to a pressure of 4 atm thereafter. Balloons were kept inflated for 4 hours, while being positioned in the culture medium. Thereafter, the tracheal rings were further cultivated in separate vials for 24 hours. In a separate set of investigations, sense/antisense ODNs for HO-1 (Invitrogen) directed against the translation initiation codon in the HO-1 cDNA was used to inhibit hemoxydase-1 synthesis. The cells were transfected using the Superfect transfection reagent (Qiagen) before traumatization. In another set of experiments, the HO inhibitor SnPP IX (Porphyrin Products, London, UK) was added to the culture medium 6 hours before traumatization at a dose of 10 micromol.
For analysis, the rings were cut into small strips using a no touch technique. Viability was tested using a MTT assay and apoptosis using a TUNEL assay. Anti-HO-1 antibodies (StressGen, Tebu, Le-Perray-en-Yvelines, France) were measured by Western blot and immunohistochemistry.

Data set [3] concerns Human epithelial lung cells (A549). Description: Membrane protein mediated cytotoxicity (NaF) in epithelial cells, MTT assay. Particulars: 10 and 50 μmol, 2 hours preincubation, NaF 1-8 mmol; compared with native FA.
Description: Human epithelial lung cells (A549) were cultured and transferred to an isotonic medium. Cell suspensions were incubated with saline solution, native fatty acid (10 and 50 μmol), or nitro fatty acid (10 and 50 μmol) for 2 hours. Sodium fluoride (NaF) was added to achieve concentrations between 1 and 8 mmol. Cells were separated and washed after 24 hours of exposure. The MTT assay was used to evaluate apoptosis rates.
Data set [4] concerns macrophages. As to the kind of experiment: Foreign body model (fusion of macrophages, IL-4). Note: key: 0: not superior to native FA (control); +: Superior to native FA; ++: superior to both; +++: outstanding effect. The class given is cell-based. Particulars: polymeric coating on stainless steel; compared with native FA. An excerpt:
Organisms react to the contact with a not completely biocompatible surface with a stereotypic chain of reactions. This is preceded by aggregation of plasmaproteins which initiate adhesion of monocytes. As a response to incompatibility, structural changes and fusion of those monocytes to form giant cells occur. The formation of giant cells is a key component in the development of a foreign body reaction. […] Predictability of foreign body reaction has been validated in an in-vitro model by monitoring fusion of macrophages in response to IL-4 exposition. Using this model a polymeric coating of a stainless steel support material containing variable amounts of nitro fatty acids or native fatty acids or just coated with the sole polymer were exposed to plasma with various concentrations of vitronectin.

Take 9,10-nitro-cis-oleic acid [compound 10]: the “Relative efficacy in model for fibrosis induction” value (from here on “Relative efficacy in model”) in data set [1] was “++”. The “Relative effect on tissue damage due to barotrauma” value (“Relative effect … to barotrauma” for short) in data set [2] was “++”.
Regarding “9,10-nitro-trans-oleic acid [compound 15]”, in data set [1], the “Relative efficacy in model” value is recorded as “+”. In addition, the “Relative effect … to barotrauma” value in data set [2] is “+”.
Turning to `CCCCCCCC/C=C(/CCCCCCCC(=O)O)[N+](=O)[O-]` [compound 1, 9-nitro cis-oleic acid], the “Relative efficacy in model” value in data set [1] is given as “++”. For the same molecule, in data set [2], the “Relative effect … to barotrauma” value is “++”. Further, the “Relative effect on NaF-induced cytotoxicity” value in data set [3] is recorded as “++”.
On to `CCCCC/C=C\C/C(=C\CCCCCCCC(=O)O)[N+](=O)[O-]` [compound 2, 10-nitro-cis-linoleic acid], for which the “Relative efficacy in model” value in data set [1] is listed as “++”. Also, the “Relative effect … to barotrauma” value in data set [2] was “+”. Besides, the “Relative effect on NaF-induced cytotoxicity” value in data set [3] is “++”.
In the case of `CCCCCCCC/C(=C/CCCCCCCC(=O)O)[N+](=O)[O-]` [compound 3, 10-nitro-cis-oleic acid], the “Relative efficacy in model” value in data set [1] is “+”. The “Relative effect … to barotrauma” value in data set [2] is listed as “+”. In data set [3], the “Relative effect on NaF-induced cytotoxicity” value is given as “+”.
Turning to `CC/C=C\C/C=C\C/C=C(/CCCCCCCC(=O)O)[N+](=O)[O-]` [compound 6, 9-nitro-all-cis-9-12,15-octadecatrienoic acid], the “Relative efficacy in model” value in data set [1] was “++”. The “Relative effect … to barotrauma” value in data set [2] is “+”.
The corresponding values for `CCCCCCCC/C=C(/CCCCCCCCCCCCCC(=O)O)[N+](=O)[O-]` [compound 8, 15-nitro-cis-15-tetracosenoic acid] are “+” and “+”.
Taken in the same sequence, the figures for `CCCCC=C(C=CC=CCCCCCCCC(=O)O)[N+](=O)[O-]` [compound 11, 13-nitro-octadeca-9,11,13-trienoic acid] were “+” and “+”.
The corresponding values for `CCCCCC=CCC=C(CC=CCC=CCCCC(=O)O)[N+](=O)[O-]` [compound 14, 11-nitro-5,8,11,14-eicosatrienoic acid] are “+” and “+”.
For `CCCCCCCCCCC/C=C(/CCCCC(=O)O)[N+](=O)[O-]` [compound 21, 6-nitro-cis-6-octadecenoic acid], the “Relative efficacy in foreign body model” value in data set [4] is “+”.
`CCCCCC=CCC=C(CC=CC/C=C\CCCC(=O)O)[N+](=O)[O-]` [compound 22, 11-nitro-cis-5,8,11,14-eicosatetraenoic acid]: the “Relative efficacy in model” value in data set [1] is “++”. Besides, the “Relative efficacy in foreign body model” value in data set [4] is “++”. The “Relative effect … to barotrauma” value in data set [2] was “+”. In addition, in data set [3], the “Relative effect on NaF-induced cytotoxicity” value is listed as “++”.

The values above are taken from patent publication US20130039956A1, “USE OF NITROCARBOXYLIC ACIDS FOR THE TREATMENT, DIAGNOSIS AND PROPHYLAXIS OF AGGRESSIVE HEALING PATTERNS” (priority 2010, published 2013).
